{
  "source": "paper PMC12655526",
  "about": "“Effective Oral Delivery of Teriparatide Using Organoclay—Polymethacrylate Nanocomposites for Osteoporosis Therapy” (Pharmaceutics, 2025)",
  "key": {"pepsin": {"target": "T1, pepsin (Sus scrofa, UniProt P00791)", "T1 construct": "purchased Sigma-Aldrich Co. (St Louis, MO, USA)", "T1 sequence (P00791 60-385)": "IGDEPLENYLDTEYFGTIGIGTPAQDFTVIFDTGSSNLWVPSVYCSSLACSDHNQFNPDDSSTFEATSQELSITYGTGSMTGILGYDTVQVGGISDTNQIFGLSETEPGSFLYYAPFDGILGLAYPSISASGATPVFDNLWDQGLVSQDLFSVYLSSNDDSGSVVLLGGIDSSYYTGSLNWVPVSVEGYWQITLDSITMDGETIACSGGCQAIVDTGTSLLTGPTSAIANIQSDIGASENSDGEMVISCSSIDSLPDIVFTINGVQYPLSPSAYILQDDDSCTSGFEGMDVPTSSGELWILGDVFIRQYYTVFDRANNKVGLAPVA", "test": "Gastrointestinal stability in simulated gastric fluid (SGF)", "assay_type": "in vitro ADME", "conditions": "SGF pH 1.2, 5 μg/mL pepsin, 0.5 mg/mL teriparatide, 37 °C, 100 rpm; CD after release in PBS pH 7.4", "experimental": "(§1) The conformational integrity of teriparatide encapsulated within nanocomplexes was assessed under simulated gastrointestinal conditions using enzyme-supplemented media. Specifically, samples were incubated in simulated gastric fluid (SGF; pH 1.2, containing 5 μg/mL pepsin) or simulated intestinal fluid (SIF; pH 7.4, supplemented with 20 μg/mL trypsin). Nanoparticles corresponding to 0.5 mg/mL of teriparatide were dispersed in 1 mL of either SGF or SIF and incubated at 37 °C with stirring at 100 rpm. Digestion was quenched with 0.2 mL of 0.2 M NaOH (for SGF) or 0.1 M HCl (for SIF) at predefined times. The nanoparticles were then isolated via centrifugation, redispersed in PBS (pH 7.4), and incubated for 2 h. The conformation of teriparatide following its release from nanoparticles was analyzed by CD spectroscopy to verify structural stability."}, "[1]": {"system": "dexamethasone-induced osteoporosis rats", "test": "Micro-CT and histology of femora in dexamethasone-induced osteoporosis rats", "assay_type": "in vivo, rat", "experimental": "The therapeutic effect of orally delivered EE/AC-Teri was examined in dexamethasone-induced osteoporosis rats under an Institutional Animal Care and Use committee (IACUC)-approved protocol (IACUC-2023-039-2). Male Sprague–Dawley rats (280–300 g) were randomly allocated to four groups (n = 6 each). The control group received a daily subcutaneous saline. In the osteoporotic model group, 0.1 mg/kg dexamethasone was administered subcutaneously each day to induce bone loss. The injectable teriparatide treatment group was given a combination of daily subcutaneous dexamethasone (0.1 mg/kg) and teriparatide (0.04 mg/kg). The final group was administered EE/AC-Teri orally (16 mg/kg of teriparatide), in combination with daily subcutaneous dexamethasone (0.1 mg/kg). After 8 week-treatment, blood was drawn for biochemical analysis. Blood (0.6 mL) was collected once on day 57 via the jugular vein under 1.5% isoflurane anesthesia in a Tabletop Anesthesia System (Harvard Apparatus, Cambridge, MA, USA). Serum osteocalcin (OCN), procollagen type I N-terminal propeptide (PINP), C-terminal telopeptide of type I collagen (CTx), tartrate-resistant acid phosphatase 5b (TRAP5b), and calcium were quantified with commercial ELISA kits (Thermo Fisher Scientific, Waltham, MA, USA) according to the manufacturer’s instructions. At study completion, animals were euthanized using a 30%/min displacement of chamber air with compressed CO2. Both femora were excised and fixed in 4% neutral-buffered formalin for 48 h. Fixed bones were processed for histological and structural analysis. Some samples were paraffin-embedded and sectioned for histological examination using hematoxylin and eosin (H&E) staining. The remaining specimens were subjected to structural evaluation via micro-computed tomography (micro-CT; the Korea Basic Science Institute). Images were acquired using a 90 kV/80 μA X-ray source over a 4 min acquisition time, with the scan field confined to 10 mm. Reconstructed images were generated at an isotropic voxel resolution of 20 μm. Quantitative parameters describing trabecular bone microarchitecture were assessed using Analyze software (ver 12.0; AnalyzeDirect, Overland Park, KS, USA)."}, "trypsin": {"system": "trypsin", "test": "Gastrointestinal stability in simulated intestinal fluid (SIF)", "assay_type": "in vitro ADME", "conditions": "SIF pH 7.4, 20 μg/mL trypsin, 0.5 mg/mL teriparatide, 37 °C, 100 rpm; CD after release in PBS pH 7.4", "experimental": "as §1"}, "[2]": {"system": "dexamethasone-induced osteoporosis rats", "test": "Serum bone-turnover biomarkers in dexamethasone-induced osteoporosis rats", "assay_type": "in vivo, rat", "conditions": "8 weeks daily, oral EE/AC-Teri 16 mg/kg or sc teriparatide 0.04 mg/kg, n = 6", "experimental": "The therapeutic effect of orally delivered EE/AC-Teri was examined in dexamethasone-induced osteoporosis rats under an Institutional Animal Care and Use committee (IACUC)-approved protocol (IACUC-2023-039-2). Male Sprague–Dawley rats (280–300 g) were randomly allocated to four groups (n = 6 each). The control group received a daily subcutaneous saline. In the osteoporotic model group, 0.1 mg/kg dexamethasone was administered subcutaneously each day to induce bone loss. The injectable teriparatide treatment group was given a combination of daily subcutaneous dexamethasone (0.1 mg/kg) and teriparatide (0.04 mg/kg). The final group was administered EE/AC-Teri orally (16 mg/kg of teriparatide), in combination with daily subcutaneous dexamethasone (0.1 mg/kg). After 8 week-treatment, blood was drawn for biochemical analysis. […] Serum osteocalcin (OCN), procollagen type I N-terminal propeptide (PINP), C-terminal telopeptide of type I collagen (CTx), tartrate-resistant acid phosphatase 5b (TRAP5b), and calcium were quantified with commercial ELISA kits (Thermo Fisher Scientific, Waltham, MA, USA) according to the manufacturer’s instructions. […] Quantitative parameters describing trabecular bone microarchitecture were assessed using Analyze software (ver 12.0; AnalyzeDirect, Overland Park, KS, USA)."}, "[3]": {"conditions": "8 weeks daily, oral EE/AC-Teri 16 mg/kg or sc teriparatide 0.04 mg/kg, dexamethasone rats, femur"}},
  "data": [
    {"compound": "CC[C@H](C)[C@H](NC(=O)[C@H](CCC(=O)O)NC(=O)[C@H](CO)NC(=O)[C@@H](NC(=O)[C@@H](N)CO)C(C)C)C(=O)N[C@@H](CCC(N)=O)C(=O)N[C@@H](CC(C)C)C(=O)N[C@@H](CCSC)C(=O)N[C@@H](Cc1cnc[nH]1)C(=O)N[C@@H](CC(N)=O)C(=O)N[C@@H](CC(C)C)C(=O)NCC(=O)N[C@@H](CCCCN)C(=O)N[C@@H](Cc1cnc[nH]1)C(=O)N[C@@H](CC(C)C)C(=O)N[C@@H](CC(N)=O)C(=O)N[C@@H](CO)C(=O)N[C@@H](CCSC)C(=O)N[C@@H](CCC(=O)O)C(=O)N[C@@H](CCCN=C(N)N)C(=O)N[C@H](C(=O)N[C@@H](CCC(=O)O)C(=O)N[C@@H](Cc1c[nH]c2ccccc12)C(=O)N[C@@H](CC(C)C)C(=O)N[C@@H](CCCN=C(N)N)C(=O)N[C@@H](CCCCN)C(=O)N[C@@H](CCCCN)C(=O)N[C@@H](CC(C)C)C(=O)N[C@@H](CCC(N)=O)C(=O)N[C@@H](CC(=O)O)C(=O)N[C@H](C(=O)N[C@@H](Cc1cnc[nH]1)C(=O)N[C@@H](CC(N)=O)C(=O)N[C@@H](Cc1ccccc1)C(=O)O)C(C)C)C(C)C", "note": "[teriparatide]", "values": [
      {"measurement": "Conformational integrity of teriparatide in SGF (CD spectra)", "setting": "pepsin", "result": "pronounced conformational alterations in both SGF and SIF"},
      {"measurement": "Trabecular architecture by histology (H&E)", "setting": "[1]; [3]", "result": "partially restored architecture"},
      {"measurement": "Trabecular architecture by micro-CT imaging", "setting": "[1]; [3]", "result": "mitigated these lesions, preserving a denser, interconnected trabecular network"},
      {"measurement": "Bone mineral density (BMD)", "setting": "[1]; micro-CT, 8 weeks, oral EE/AC-Teri 16 mg/kg or sc teriparatide 0.04 mg/kg, versus dexamethasone control, n = 6", "result": "significantly restored"},
      {"measurement": "Bone volume fraction (BV/TV)", "setting": "[1]; micro-CT, 8 weeks, sc teriparatide 0.04 mg/kg, versus dexamethasone control, n = 6", "result": "significantly restored"},
      {"measurement": "Conformational integrity of teriparatide in SIF (CD spectra)", "setting": "trypsin", "result": "pronounced conformational alterations in both SGF and SIF"},
      {"measurement": "Serum calcium / hypercalcemia", "setting": "[2]", "result": "did not produce sustained hypercalcemia"}
    ]}
  ]
}
